Assay results taken from patent publication US9763957B2, “Autotaxin inhibitors” (Novartis AG, priority 2013, dated 2017).

Biological target: Recombinant human ATX (Homo sapiens (Human), UniProt Q13822)
Assay: ATX inhibition assay (choline release, Amplex Red fluorescence)
Format: biochemical
Conditions: ATX 10 nM, LPC 18:1 10 μM, 37° C., 20 min pre-incubation; mean of n≧2
Outline: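 Activity was taken from the slope of resorufin fluorescence (530/590 nm, read every 2 min for 40 min at 37 °C) produced by choline liberated from 10 μM oleoyl LPC.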

Structure (SMILES) | IC50 [nM]
Cc1nnn(Cc2cc(Cl)ccc2/C=C/C(=O)N2CCC(c3nnc(CN4CCCCC4)o3)CC2)n1 [Example 122, (E)-3-(4-Chloro-2-((5-methyl-2H-tetrazol-2-yl)methyl)phenyl)-1-(4-(5-(piperidin-1-ylmethyl)-1,3,4-oxadiazol-2-yl)piperidin-1-yl)prop-2-en-1-one] | 58
Cc1nnn(Cc2cc(C(F)(F)F)ccc2/C=C/C(=O)N2CCCCC2C(F)(F)F)n1 (stereo not drawn) [Example 124, (E)-3-(2-((5-Methyl-2H-tetrazol-2-yl)methyl)-4-(trifluoromethyl)phenyl)-1-(2-(trifluoromethyl)piperidin-1-yl)prop-2-en-1-one] | 35
CC(=O)NC1CCN(C(=O)/C=C/c2ccc(Cl)cc2Cn2nnc(C)n2)CC1 [Example 125, (E)-N-(1-(3-(4-Chloro-2-((5-methyl-2H-tetrazol-2-yl)methyl)phenyl)acryloyl)piperidin-4-yl)acetamide] | 110
Cc1nnn(Cc2cc(C(F)(F)F)ccc2/C=C/C(=O)N2CCC(N3CCCC3=O)CC2)n1 [Example 126, (E)-1-(1-(3-(2-((5-Methyl-2H-tetrazol-2-yl)methyl)-4-(trifluoromethyl)phenyl)acryloyl)piperidin-4-yl)pyrrolidin-2-one] | 22
Cc1nnn(Cc2cc(Cl)ccc2/C=C/C(=O)N2CCC(Cc3nnc(C)o3)CC2)n1 [Example 127, (E)-3-(4-Chloro-2-((5-methyl-2H-tetrazol-2-yl)methyl)phenyl)-1-(4-((5-methyl-1,3,4-oxadiazol-2-yl)methyl)piperidin-1-yl)prop-2-en-1-one] | 60
COC(=O)C1CCN(C(=O)/C=C/c2ccc(Cl)cc2Cn2nnc(C)n2)CC1 [Example 128, (E)-Methyl 1-(3-(4-chloro-2-((5-methyl-2H-tetrazol-2-yl)methyl)phenyl)acryloyl)piperidine-4-carboxylate] | 28
Cc1nnn(Cc2cc(Cl)ccc2/C=C/C(=O)N2CCC(CC(=O)N3CCOCC3)CC2)n1 [Example 129, (E)-3-(4-Chloro-2-((5-methyl-2H-tetrazol-2-yl)methyl)phenyl)-1-(4-(2-morpholino-2-oxoethyl)piperidin-1-yl)prop-2-en-1-one] | 49
Cc1nnn(Cc2cc(Cl)ccc2/C=C/C(=O)N2CC(Oc3ccc(F)cc3)C2)n1 [Example 130, (E)-3-(4-Chloro-2-((5-methyl-2H-tetrazol-2-yl)methyl)phenyl)-1-(3-(4-fluorophenoxy)azetidin-1-yl)prop-2-en-1-one] | 170
Cc1nnn(Cc2cc(C(F)(F)F)ccc2/C=C/C(=O)N2C[C@@H](F)C[C@H]2CO)n1 [Example 131, (E)-1-((2S,4S)-4-Fluoro-2-(hydroxymethyl)pyrrolidin-1-yl)-3-(2-((5-methyl-2H-tetrazol-2-yl)methyl)-4-(trifluoromethyl)phenyl)prop-2-en-1-one] | 23
Cc1nnn(Cc2cc(C(F)(F)F)ccc2/C=C/C(=O)N2CCC[C@H]2CO)n1 [Example 133, (S,E)-1-(2-(Hydroxymethyl)pyrrolidin-1-yl)-3-(2-((5-methyl-2H-tetrazol-2-yl)methyl)-4-(trifluoromethyl)phenyl)prop-2-en-1-one] | 81
Cc1nnn(Cc2cc(Cl)ccc2/C=C/C(=O)N2CCC(Oc3ccc(C(F)(F)F)cn3)CC2)n1 [Example 135, (E)-3-(4-Chloro-2-((5-methyl-2H-tetrazol-2-yl)methyl)phenyl)-1-(4-((5-(trifluoromethyl)pyridin-2-yl)oxy)piperidin-1-yl)prop-2-en-1-one] | 327
Cc1nnn(Cc2cc(Cl)ccc2/C=C/C(=O)N2CCC(Cc3nnc(CN4CCOCC4)o3)CC2)n1 [Example 136, (E)-3-(4-Chloro-2-((5-methyl-2H-tetrazol-2-yl)methyl)phenyl)-1-(4-((5-(morpholinomethyl)-1,3,4-oxadiazol-2-yl)methyl)piperidin-1-yl)prop-2-en-1-one] | 32
Cc1nnn(Cc2cc(Cl)ccc2/C=C/C(=O)N2CCC(Cc3ccccc3)CC2)n1 [Example 139, (E)-1-(4-Benzylpiperidin-1-yl)-3-(4-chloro-2-((5-methyl-2H-tetrazol-2-yl)methyl)phenyl)prop-2-en-1-one] | 67
Cc1cc(CN2CCN(C(=O)/C=C/c3ccc(Cl)cc3Cn3nnc(C)n3)CC2)on1 [Example 140.2, (E)-3-(4-Chloro-2-((5-methyl-2H-tetrazol-2-yl)methyl)phenyl)-1-(4-((3-methylisoxazol-5-yl)methyl)piperazin-1-yl)prop-2-en-1-one] | 64
Cc1nnn(Cc2cc(Cl)ccc2/C=C/C(=O)N2CCN(Cc3coc(C)n3)CC2)n1 [Example 140.3, (E)-3-(4-Chloro-2-((5-methyl-2H-tetrazol-2-yl)methyl)phenyl)-1-(4-((2-methyloxazol-4-yl)methyl)piperazin-1-yl)prop-2-en-1-one] | 30
Cc1nnn(Cc2cc(Cl)ccc2/C=C/C(=O)N2CCN(Cc3nc4ccccc4n3C)CC2)n1 [Example 140.4, (E)-3-(4-Chloro-2-((5-methyl-2H-tetrazol-2-yl)methyl)phenyl)-1-(4-((1-methyl-1H-benzo[d]imidazol-2-yl)methyl)piperazin-1-yl)prop-2-en-1-one] | 43
Cc1nnn(Cc2cc(Cl)ccc2/C=C/C(=O)N2CCN(Cc3cc(-c4ccccc4)nn3C)CC2)n1 [Example 140.6, (E)-3-(4-Chloro-2-((5-methyl-2H-tetrazol-2-yl)methyl)phenyl)-1-(4-((1-methyl-3-phenyl-1H-pyrazol-5-yl)methyl)piperazin-1-yl)prop-2-en-1-one] | 42
Cc1nnn(Cc2cc(Cl)ccc2/C=C/C(=O)N2CCN(Cc3cnn(C)c3)CC2)n1 [Example 140.9, (E)-3-(4-Chloro-2-((5-methyl-2H-tetrazol-2-yl)methyl)phenyl)-1-(4-((1-methyl-1H-pyrazol-4-yl)methyl)piperazin-1-yl)prop-2-en-1-one] | 34
C[C@@H]1CN(Cc2ccc(F)cc2)CCN1C(=O)/C=C/c1ccc(Cl)cc1Cc1nnn(C)n1 [Example 143, (R,E)-3-(4-Chloro-2-((2-methyl-2H-tetrazol-5-yl)methyl)phenyl)-1-(4-(4-fluorobenzyl)-2-methylpiperazin-1-yl)prop-2-en-1-one] | 31

Stronger by IC50, values ahead:

IC50 [nM] | Structure (SMILES)
17 | Cc1nnn(Cc2cc(Cl)ccc2/C=C/C(=O)N2CCC(CCNC(=O)c3c[nH]nc3C(F)(F)F)CC2)n1 [Example 146, (E)-N-(2-(1-(3-(4-Chloro-2-((5-methyl-2H-tetrazol-2-yl)methyl)phenyl)acryloyl)piperidin-4-yl)ethyl)-3-(trifluoromethyl)-1H-pyrazole-4-carboxamide]
14 | Cc1nnn(Cc2cc(C(F)(F)F)ccc2/C=C/C(=O)N2CCN(Cc3coc(C)n3)C[C@H]2CO)n1 [Example 132, (S,E)-1-(2-(Hydroxymethyl)-4-((2-methyloxazol-4-yl)methyl)piperazin-1-yl)-3-(2-((5-methyl-2H-tetrazol-2-yl)methyl)-4-(trifluoromethyl)phenyl)prop-2-en-1-one]
14 | Cc1nc(Cc2cc(Cl)ccc2/C=C/C(=O)N2CCN(Cc3ccc(F)cc3)C[C@H]2C)no1 [Example 144, (R,E)-3-(4-Chloro-2-((5-methyl-1,2,4-oxadiazol-3-yl)methyl)phenyl)-1-(4-(4-fluorobenzyl)-2-methylpiperazin-1-yl)prop-2-en-1-one]
13 | Cc1nnn(Cc2cc(Cl)ccc2/C=C/C(=O)N2CCC(CCNC(=O)c3c[nH]nn3)CC2)n1 [Example 145, (E)-N-(2-(1-(3-(4-Chloro-2-((5-methyl-2H-tetrazol-2-yl)methyl)phenyl)acryloyl)piperidin-4-yl)ethyl)-1H-1,2,3-triazole-4-carboxamide]
12 | Cc1nnn(Cc2cc(Cl)ccc2/C=C/C(=O)N2CCC(c3nnc(CN4CCOCC4)o3)CC2)n1 [Example 134, (E)-3-(4-Chloro-2-((5-methyl-2H-tetrazol-2-yl)methyl)phenyl)-1-(4-(5-(morpholinomethyl)-1,3,4-oxadiazol-2-yl)piperidin-1-yl)prop-2-en-1-one]
12 | Cc1nnn(Cc2cc(C(F)(F)F)ccc2/C=C/C(=O)N2CCOCC2C(F)(F)F)n1 (stereo not drawn) [Example 142, (E)-3-(2-((5-Methyl-2H-tetrazol-2-yl)methyl)-4-(trifluoromethyl)phenyl)-1-(3-(trifluoromethyl)morpholino)prop-2-en-1-one]
11 | Cc1nnn(Cc2cc(Cl)ccc2/C=C/C(=O)N2CCC(c3nnc(CC(F)(F)F)o3)CC2)n1 [Example 141, (E)-3-(4-Chloro-2-((5-methyl-2H-tetrazol-2-yl)methyl)phenyl)-1-(4-(5-(2,2,2-trifluoroethyl)-1,3,4-oxadiazol-2-yl)piperidin-1-yl)prop-2-en-1-one]
8.8 | Cc1nnn(Cc2cc(Cl)ccc2/C=C/C(=O)N2CCN(Cc3cnc(N4CCOCC4)nc3)CC2)n1 [Example 140.8, (E)-3-(4-Chloro-2-((5-methyl-2H-tetrazol-2-yl)methyl)phenyl)-1-(4-((2-morpholinopyrimidin-5-yl)methyl)piperazin-1-yl)prop-2-en-1-one]
6.3 | Cc1nnn(Cc2cc(Cl)ccc2/C=C/C(=O)N2CCC(O)(Cc3ccccc3)CC2)n1 [Example 138, (E)-1-(4-Benzyl-4-hydroxypiperidin-1-yl)-3-(4-chloro-2-((5-methyl-2H-tetrazol-2-yl)methyl)phenyl)prop-2-en-1-one-N]
5.9 | COc1ccc(CN2CCN(C(=O)/C=C/c3ccc(Cl)cc3Cn3nnc(C)n3)CC2)nc1 [Example 140.1, (E)-3-(4-Chloro-2-((5-methyl-2H-tetrazol-2-yl)methyl)phenyl)-1-(4-((5-methoxypyridin-2-yl)methyl)piperazin-1-yl)prop-2-en-1-one]
3.5 | COc1ccc(CN2CCN(C(=O)/C=C/c3ccc(Cl)cc3Cn3nnc(C)n3)[C@H](C)C2)nc1 [Example 123, (R,E)-3-(4-Chloro-2-((5-methyl-2H-tetrazol-2-yl)methyl)phenyl)-1-(4-((5-methoxypyridin-2-yl)methyl)-2-methylpiperazin-1-yl)prop-2-en-1-one]
